Assay results as given in patent publication US20060276393A1, “Novel compositions for preventing and treating neurodegenerative and blood coagulation disorders” (Sirtris Pharmaceuticals, Inc., priority 2005, published 2006).

Columns and labels:
recombinant GST-Sir2 = recombinant GST-Sir2 (Saccharomyces cerevisiae, UniProt P06700); test: Sir2 deacetylation rate assay; type: biochemical, S. cerevisiae; settings: in vitro dose-response
Experimental: Average lifespan for wild type, 22.9 generations, quercetin, 23.4; piceatannol.
His6-tagged recombinant SIRT1 and GST-tagged recombinant Sir2 were prepared as previously described^26. From 0.1 to 1 μg of SIRT1 and 1.5 μg of Sir2 were used per deacetylation assay (in 50 μl total reaction) as previously described^26. SIRT1 assays and certain of those for Sir2 employed the p53-382 acetylated substrate (° Fluor de Lys-SIRT1′, BIOMOL) rather than FdL.
Themed compound libraries (BIOMOL) were used for primary and secondary screening. Most polyphenol compounds were dissolved at 10 mM in dimethylsulfoxide (DMSO) on the day of the assay. For water soluble compounds and negative controls, 1% v/v DMSO was added to the assay. In vitro fluorescence assay results were read in white ½-volume 96-well microplates (Coming Costar 3693) with a CytoFluor™. II fluorescence plate reader (PerSeptive Biosystems, Ex. 360 nm, Em. 460 nm, gain=85). HeLa cells were grown and the cellular deacetylation assays were performed and read, as above, but in full-volume 96-well microplates (Coming Costar 3595). […] Calculation of net fluorescence increases included subtraction of a blank value, which in the case of Sir2 was obtained by omitting the enzyme from the reaction and in the case of SIRT1 by adding an inhibitor (200 μM suramin or 1 mM nicotinamide) to the reaction prior to the acetylated substrate. […]

recombinant SIR-2.1 = biological target: T1, recombinant SIR-2.1 (Caenorhabditis elegans, UniProt Q21921)
T1 sequence (Q21921 1-607): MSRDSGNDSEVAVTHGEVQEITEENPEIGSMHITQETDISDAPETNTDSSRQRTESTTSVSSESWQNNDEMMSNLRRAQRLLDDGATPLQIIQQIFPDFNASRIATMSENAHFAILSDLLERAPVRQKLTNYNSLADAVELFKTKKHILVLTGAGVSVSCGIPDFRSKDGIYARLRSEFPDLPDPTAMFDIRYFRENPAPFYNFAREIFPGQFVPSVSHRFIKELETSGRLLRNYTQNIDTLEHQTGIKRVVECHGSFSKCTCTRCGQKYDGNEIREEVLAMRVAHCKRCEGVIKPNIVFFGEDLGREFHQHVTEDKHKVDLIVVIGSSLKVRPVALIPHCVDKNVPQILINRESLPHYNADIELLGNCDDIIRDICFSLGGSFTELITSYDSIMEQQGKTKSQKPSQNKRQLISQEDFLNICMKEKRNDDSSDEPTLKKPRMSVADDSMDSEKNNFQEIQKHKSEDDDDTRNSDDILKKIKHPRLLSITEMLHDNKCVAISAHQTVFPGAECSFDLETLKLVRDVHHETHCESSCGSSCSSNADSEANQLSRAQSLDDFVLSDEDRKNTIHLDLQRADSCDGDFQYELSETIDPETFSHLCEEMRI
Experimental: STACs were dissolved at 10 mM in dimethylsulfoxide (DMSO) the day of the assay. […] Drosophila S2 cells were grown in Schneider media with fetal calf serum at 23-28° C., seeded at 9×10^4 cells/well, grown overnight and then exposed to 1 μM TSA, 500 μM polyphenols, and 200 μM FdL for 2 hr. Deacetylation of FdL with lysate from whole cells was determined as described^4. Unless otherwise indicated all initial rate measurements were means of three or more replicates obtained with single incubation times, at which point 5% or less of the substrate initially present was deacetylated.

[1] = tested on: acetylated K382 of p53 in U2OS osteosarcoma cells; test: p53 Ac-K382 Western blot after UV radiation; type: cell-based, human
Experimental: FdL (200 μM) is added to growth media and cells incubated for 1-3 hours to allow FdL to enter the cells and the lysine-deacetylated product (deAc-FdL) to accumulate intracellularly. Cells are lysed with detergent in the presence of 1 μM TSA, 1 mM nicotinamide. […] Cells were grown adherently in DMEM/10% FCS and treated for 1 hour with 200 μM FdL, 1 μM TSA and either vehicle (0.5% final DMSO, Control) or 500 μM of the indicated compound. Intracellular accumulation of deAc-FdL was then determined as described briefly in a. […] Lysates were prepared and analyzed as above.

Human recombinant SIRT2 = biological target: T2, Human recombinant SIRT2 (Homo sapiens, UniProt Q8IXJ6); test: SIRT2 deacetylation assay; type: biochemical; settings: increasing resveratrol; 25 μM Fluor de Lys-SIRT2, 25 μM NAD+, 20 min 37° C.
T2 sequence (Q8IXJ6 1-389): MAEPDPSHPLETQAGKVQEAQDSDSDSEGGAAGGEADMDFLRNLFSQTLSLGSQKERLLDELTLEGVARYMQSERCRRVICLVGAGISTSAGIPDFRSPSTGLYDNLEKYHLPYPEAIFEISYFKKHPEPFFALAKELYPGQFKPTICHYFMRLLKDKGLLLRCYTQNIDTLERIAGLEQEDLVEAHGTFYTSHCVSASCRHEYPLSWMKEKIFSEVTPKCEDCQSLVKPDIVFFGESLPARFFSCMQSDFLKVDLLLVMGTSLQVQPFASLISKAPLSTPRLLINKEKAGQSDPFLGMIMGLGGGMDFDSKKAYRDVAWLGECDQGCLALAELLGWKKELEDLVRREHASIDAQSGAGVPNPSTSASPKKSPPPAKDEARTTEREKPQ
From the text: Yeast Sir2 and human SIRT1 are very homologous and differ from human SIRT2 by the addition of an N-terminal domain that is absent in SIRT2. […] Thus, based on the difference in structure of SIRT1 and SIRT2, i.e., the absence of an N-terminal domain (see FIG. 8), it is believed that the N-terminal domain of SIRT1 and Sir2 is necessary for activation by the compounds described herein. In particular, it is likely that the activator compounds described herein interact with the N-terminal portion of sirtuins. The N-terminal portion of SIRT1 that is necessary for the action of the compounds is from about amino acid 1 to about amino acid 176, and that of Sir2 is from about amino acid 1 to about amino acid 175.

Chain of recombinant GST-Sir2 (P06700 whole entry): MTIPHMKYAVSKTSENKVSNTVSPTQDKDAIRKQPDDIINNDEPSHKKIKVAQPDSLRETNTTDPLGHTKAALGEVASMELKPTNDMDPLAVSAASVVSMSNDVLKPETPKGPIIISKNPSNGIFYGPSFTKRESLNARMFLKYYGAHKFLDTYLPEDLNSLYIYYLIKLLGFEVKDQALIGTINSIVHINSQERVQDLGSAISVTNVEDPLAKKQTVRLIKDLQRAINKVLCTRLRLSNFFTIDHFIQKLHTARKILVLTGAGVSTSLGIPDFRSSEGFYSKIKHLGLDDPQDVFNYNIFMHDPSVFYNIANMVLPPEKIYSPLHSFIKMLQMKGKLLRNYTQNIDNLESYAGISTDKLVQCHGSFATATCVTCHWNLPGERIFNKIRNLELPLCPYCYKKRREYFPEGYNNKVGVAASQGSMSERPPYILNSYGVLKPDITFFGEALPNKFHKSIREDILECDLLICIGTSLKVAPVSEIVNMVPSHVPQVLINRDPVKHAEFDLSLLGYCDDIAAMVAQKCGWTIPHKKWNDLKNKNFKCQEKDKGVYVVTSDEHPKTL

Oc1ccc(/C=C/c2cc(O)cc(O)c2)cc1 [Resveratrol, 3,5,4′-Trihydroxy-trans-stilbene]
concentrations at which inhibition of Sir2 was seen (recombinant GST-Sir2): > 100 µM
optimum concentration of activator for Sir2 stimulation (recombinant GST-Sir2): 2 to 5 µM
Km of SIR-2.1 for the co-substrate NAD+ (recombinant SIR-2.1; 100 μM resveratrol, 10 μM Fluor de Lys): lowered the Km of SIR-2.1
stimulated deacetylation (maximum) (recombinant SIR-2.1; dose-dependent, Fluor de Lys): up to 2.5 fold
level of Ac-K382 of p53 ([1]; 0.5 μM resveratrol, 4 hours pre-treatment, UV): marked decrease in the level of Ac-K382
level of Ac-K382 of p53 ([1]; >50 μM resveratrol): the effect was reversed
SIRT2 activity (Human recombinant SIRT2): decrease SIRT2 activity
